Measurements published in paper PMC9418603 (JID Innovations, 2022).
“Also recorded” adds a separate entry of the source. Where two headings read alike, the source gives them in different places. Where no end group is shown, it is not given here. The star is where a group is joined. Biotin = O=C1N[C@H]2[C@H](CS[C@H]2CCCCC(=O)*)N1

How the values were obtained:
TGM2 [1] = settings: cited from earlier work
TGM2 [2] = settings: cited from earlier work; remark: listed apart in the source
[3] = test system: N-acetylgalactosamine‒specific lectins; settings: cited from earlier work
TGM2 [4] = target: TGM2 (Cavia cutleri, UniProt P08587); type: biochemical, guinea pig liver
Chain of TGM2 (Cavia cutleri, UniProt P08587) (P08587 whole entry): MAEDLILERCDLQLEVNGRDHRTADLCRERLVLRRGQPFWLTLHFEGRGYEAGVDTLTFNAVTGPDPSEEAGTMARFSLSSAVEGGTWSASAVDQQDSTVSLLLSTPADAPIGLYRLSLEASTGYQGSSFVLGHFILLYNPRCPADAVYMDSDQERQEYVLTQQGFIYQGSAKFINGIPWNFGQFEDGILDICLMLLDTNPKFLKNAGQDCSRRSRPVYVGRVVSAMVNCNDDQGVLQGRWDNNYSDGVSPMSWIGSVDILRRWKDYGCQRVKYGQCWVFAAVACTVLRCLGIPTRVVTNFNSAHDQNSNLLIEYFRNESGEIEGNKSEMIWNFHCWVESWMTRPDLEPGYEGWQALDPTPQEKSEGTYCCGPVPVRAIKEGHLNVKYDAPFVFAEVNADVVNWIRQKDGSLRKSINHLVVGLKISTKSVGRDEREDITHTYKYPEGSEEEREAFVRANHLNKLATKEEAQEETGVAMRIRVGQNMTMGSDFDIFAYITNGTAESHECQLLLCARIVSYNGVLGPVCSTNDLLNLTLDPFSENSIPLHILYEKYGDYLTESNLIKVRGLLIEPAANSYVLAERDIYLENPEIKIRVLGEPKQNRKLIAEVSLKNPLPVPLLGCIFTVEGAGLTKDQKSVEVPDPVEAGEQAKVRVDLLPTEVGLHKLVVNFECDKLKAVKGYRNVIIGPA

human CLEC10A (CD301) = settings: cited from earlier work
[5] = test system: LPS-treated dorsal skin of mice; set-up: species or system Female C57BL/6J mice; settings: mouse, in vivo
[6] = type: physicochemical; settings: pH 5
[7] = test system: recombinant human siglecs; settings: cited from earlier work
[8] = test system: sialic acid‒specific plant lectins; settings: cited from earlier work

**Q.** With carbobenzoxy-L-glytaminylglycine as the compound, how does the Km (TGM2 [1]) read?
**A.** 22000 µM

**Q.** Which “induction of TGM2 expression” value (TGM2 [2]) does the source give for `C[C@@H]1C[C@H]2[C@@H]3CCC4=CC(=O)C=C[C@]4(C)[C@@]3(F)[C@@H](O)C[C@]2(C)[C@@]1(O)C(=O)CO` [dexamethasone] here?
**A.** Expression of TGM2 is induced

**Q.** With `NCCCCNCCCN` [spermidine] as the compound, how does the “acceptor amine (second substrate) activity” value (TGM2 [1]) read?
**A.** active second substrates

**Q.** For [(NQHTPR-GGGS)2K2]K-NH2 [sv6D], which “binding to other N-acetylgalactosamine‒specific lectins” value [3] is on record?
**A.** bind specifically to human CLEC10A ([Hoober, 2020]) and other N-acetylgalactosamine‒specific lectins

**Q.** And the “Km relative to svL4” value (TGM2 [4])?
**A.** higher Km values

**Q.** And the “TGM2 functional substrate / cross-linking to lysine” value (TGM2 [4])?
**A.** the enzyme can use glutamine from the arms; also recorded: functional substrates of transglutaminase (TGM) 2

**Q.** And the “TGM2 substrate activity” value (TGM2 [4])?
**A.** poor substrates in vitro

**Q.** And the “TGM2 substrate activity with aged enzyme” value (TGM2 [4])?
**A.** gained the ability to use sv6D

**Q.** What about the “binding to human CLEC10A” value (human CLEC10A (CD301)) of the same compound?
**A.** binds with high specificity and avidity to recombinant and native human CLEC10A (CD301); also recorded: bind specifically to human CLEC10A

**Q.** What about the mean epidermal thickness [5] of the same compound?
**A.** 17.1 μm

**Q.** And the “repair of structural disruption of the epidermis (general statement)” value [5]?
**A.** structural disruption of the epidermis was repaired

**Q.** What about the positive charge [6] of the same compound?
**A.** 12

**Q.** What does the source list for [(VQATQS-GGGS)2K2]K-NH2 [svC1]?
**A.** Km relative to svL4 (TGM2 [4]): higher Km values; TGM2 functional substrate / cross-linking to lysine (TGM2 [4]): the enzyme can use glutamine from the arms; TGM2 substrate activity (TGM2 [4]): poor substrates in vitro; TGM2 substrate activity with aged enzyme (TGM2 [4]): to a lesser extent, svC1 as substrates; binding to human CLEC10A (human CLEC10A (CD301)): does not bind to CLEC10A; mean epidermal thickness [5]: 15.5 μm; reduction of epidermal thickness [5]: active in reducing the thickness of the epidermis

**Q.** For Biotin-TVQQEL, which Km (TGM2 [1]; read-out: Km of standard peptide) is on record?
**A.** 1 µM

**Q.** For [(NPSHPLSG-GGGS)2K]2K-NH2 [svH1C], which “effectiveness, topical (general statement)” value [5] is on record?
**A.** not effective when applied topically

**Q.** What about the “epidermal disruption / integrity of skin surface” value [5] of the same compound?
**A.** not when applied topically

**Q.** What about the “epidermal morphology / thickness” value [5] of the same compound?
**A.** ineffective in restoring normal epidermal morphology

**Q.** What about the “epidermal disruption / recovery, lesions” value ([5]; sc) of the same compound?
**A.** effective when injected subcutaneously; also recorded: lesions were absent

**Q.** And the epidermal thickness ([5]; sc)?
**A.** most areas of the skin contained a thickened epidermis

**Q.** What about the neutrophils in dermis ([5]; sc) of the same compound?
**A.** abundant neutrophils in the dermis

**Q.** And the “binding to recombinant human siglecs” value [7]?
**A.** recombinant human siglecs

**Q.** What about the “binding to sialic acid‒specific plant lectins” value [8] of the same compound?
**A.** binds to sialic acid‒specific plant lectins

**Q.** Which “activation constant, KA” value (TGM2 [1]) does the source give for `[Ca+2]` [Ca^2+, calcium ion] here?
**A.** 6.9 mM

**Q.** For [(VQATQSNQHTPR-GGGS)2K2]K-NH2 [svL4], which “binding to other N-acetylgalactosamine‒specific lectins” value [3] is on record?
**A.** bind specifically to human CLEC10A ([Hoober, 2020]) and other N-acetylgalactosamine‒specific lectins

**Q.** What about the “TGM2 functional substrate / cross-linking to lysine” value (TGM2 [4]) of the same compound?
**A.** the enzyme can use glutamine from the arms; also recorded: functional substrates of transglutaminase (TGM) 2

**Q.** What about the “TGM2 substrate activity with aged enzyme” value (TGM2 [4]) of the same compound?
**A.** lost over half of the activity

**Q.** And the Km (TGM2 [4]; pH 7.5)?
**A.** 7 µM

**Q.** What about the “binding to human CLEC10A” value (human CLEC10A (CD301)) of the same compound?
**A.** binds with high specificity and avidity to recombinant and native human CLEC10A (CD301); also recorded: bind specifically to human CLEC10A

**Q.** What about the “epidermal disruption / integrity of skin surface” value [5] of the same compound?
**A.** restored the integrity of the skin surface, with no epidermal disruptions

**Q.** And the “epidermal morphology / thickness” value [5]?
**A.** uniformly of normal thickness; also recorded: normal morphology with thin epidermis; also recorded: the epidermis had returned to a normal morphology

**Q.** What about the mean epidermal thickness [5] of the same compound?
**A.** 16.1 μm

**Q.** What about the “neutrophils (Ly6G^+) in dermis” value [5] of the same compound?
**A.** nearly free of neutrophils; also recorded: essentially free of neutrophils; also recorded: neutrophils were absent

**Q.** And the “neutrophils in the dermis (summary statement)” value [5]?
**A.** loss of neutrophils in the dermis

**Q.** And the “repair of structural disruption of the epidermis (general statement)” value [5]?
**A.** repair of areas of structural disruption of the epidermis; also recorded: structural disruption of the epidermis was repaired

**Q.** And the “thickness of the epidermis (summary statement)” value [5]?
**A.** reduction of the thickness of the epidermis

**Q.** And the “density of dermal collagen” value ([5]; sc)?
**A.** an increased density of dermal collagen was noted

**Q.** And the “epidermal disruption / recovery, lesions” value ([5]; sc)?
**A.** no recovery occurred

**Q.** And the epidermal thickness ([5]; sc)?
**A.** did not reduce epidermal thickness

**Q.** What about the positive charge [6] of the same compound?
**A.** 12

**Q.** For `NCCCCN` [putrescine], which “acceptor amine (second substrate) activity” value (TGM2 [1]) is on record?
**A.** active second substrates
